Source: ChEMBL document CHEMBL1275579, “Plasmid-mediated 16S rRNA methylases in aminoglycoside-resistant Enterobacteriaceae isolates in Shanghai, China” (2009)

Legend:
Enterobacteriaceae = assay: Antibacterial activity against 16S rRNA methylase and beta-lactamase producing Enterobacteriaceae by CLSI method; assay type: functional
Enterobacter cloacae = assay: Antibacterial activity against armA-positive Enterobacter cloacae expressing KPC-2 beta-lactamase by CLSI method; assay type: functional

NCC[C@H](O)C(=O)N[C@@H]1C[C@H](N)[C@@H](O[C@H]2O[C@H](CN)[C@@H](O)[C@H](O)[C@H]2O)[C@H](O)[C@H]1O[C@H]1O[C@H](CO)[C@@H](O)[C@H](N)[C@H]1O [AMIKACIN]
MIC50 (Enterobacteriaceae): > 256 µg/mL
MIC90 (Enterobacteriaceae): > 256 µg/mL

C[C@@H](O)[C@H]1C(=O)N2C(C(=O)O)=C(SCCNC=N)C[C@H]12 [IMIPENEM ANHYDROUS]
MIC (Enterobacter cloacae): > 32 µg/mL

GENTAMICIN
MIC50 (Enterobacteriaceae): > 256 µg/mL
MIC90 (Enterobacteriaceae): > 256 µg/mL
